# From ChEMBL document CHEMBL1201861, “Genomics of Drug Sensitity in Cancer screening data, Wellcome Trust Sanger Institute”
# Tests used:
# Experiment in all cases: cells
# Panc1005 = assay type: functional, cell-based, Homo sapiens; settings: Homo sapiens, Panc1005;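 also: growth inhibition of human PANC-10-05 cells, measured by a cell viability assay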
# Description: SANGER: Inhibition of human PANC-10-05 cell growth in a cell viability assay.
# EGI-1 = assay type: functional, cell-based, Homo sapiens; settings: Homo sapiens, EGI-1;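 also: cell viability readout used to gauge growth inhibition of EGI-1 cells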
# Description: SANGER: Inhibition of human EGI-1 cell growth in a cell viability assay.
# GP5d = assay type: functional, cell-based, Homo sapiens; settings: Homo sapiens, GP5d;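 also: growth inhibition of human GP5d cells, read out with a cell viability assay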
# Description: SANGER: Inhibition of human GP5d cell growth in a cell viability assay.
# SNU-449 = assay type: functional, cell-based, Homo sapiens; settings: Homo sapiens, SNU-449
# Description: SANGER: Inhibition of human SNU-449 cell growth in a cell viability assay.
# LB771-HNC = assay type: functional, cell-based, Homo sapiens; settings: Homo sapiens, LB771-HNC;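 also: growth inhibition of LB771-HNC human cells, read out with a cell viability assay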
# Description: SANGER: Inhibition of human LB771-HNC cell growth in a cell viability assay.
# MKN-7 = assay type: functional, cell-based, Homo sapiens; settings: Homo sapiens, MKN-7;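 also: growth inhibition of MKN-7 cells, read out with a cell viability assay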
# Description: SANGER: Inhibition of human MKN7 cell growth in a cell viability assay.
# BE-13 = assay type: functional, cell-based; settings: Homo sapiens;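 also: growth inhibition of human BE-13 cells, measured with a cell viability assay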
# Description: SANGER: Inhibition of human BE-13 cell growth in a cell viability assay.
# A2780 = assay type: functional, cell-based, Homo sapiens; settings: Homo sapiens, A2780;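 also: growth inhibition of A2780 cells, read out with a cell viability assay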
# Description: SANGER: Inhibition of human A2780 cell growth in a cell viability assay.
# ONS-76 = assay type: functional, cell-based, Homo sapiens; settings: Homo sapiens, ONS-76;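 also: growth inhibition of human ONS-76 cells, read out with a cell viability assay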
# Description: SANGER: Inhibition of human ONS-76 cell growth in a cell viability assay.
# LB2518-MEL = assay type: functional, cell-based, Homo sapiens; settings: Homo sapiens, LB2518-MEL;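 also: growth inhibition of human LB2518-MEL cells, measured with a cell viability assay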
# Description: SANGER: Inhibition of human LB2518-MEL cell growth in a cell viability assay.
# 8505C = assay type: functional, cell-based, Homo sapiens; settings: Homo sapiens, 8505C
# Description: SANGER: Inhibition of human 8505C cell growth in a cell viability assay.
# NCI-H1581 = assay type: functional, cell-based, Homo sapiens; settings: Homo sapiens, NCI-H1581;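 also: cell growth inhibition read out by a viability assay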
# Description: SANGER: Inhibition of human NCI-H1581 cell growth in a cell viability assay.
# EW-16 = assay type: functional, cell-based, Homo sapiens; settings: Homo sapiens, EW-16;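 also: growth inhibition of human EW-16 cells, read out as cell viability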
# Description: SANGER: Inhibition of human EW-16 cell growth in a cell viability assay.
# 647-V = assay type: functional, cell-based, Homo sapiens; settings: Homo sapiens, 647-V;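 also: growth inhibition of 647-V cells, read out with a cell viability assay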
# Description: SANGER: Inhibition of human 647-V cell growth in a cell viability assay.
# A253 cell line = assay type: functional, cell-based, Homo sapiens; settings: Homo sapiens, A253;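 also: growth inhibition of A253 cells, read out with a cell viability assay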
# Description: SANGER: Inhibition of human A253 cell growth in a cell viability assay.
# CHP-212 = assay type: functional, cell-based, Homo sapiens; settings: Homo sapiens, CHP-212
# Description: SANGER: Inhibition of human CHP-212 cell growth in a cell viability assay.
# RT-112 = assay type: functional, cell-based, Homo sapiens; settings: Homo sapiens, RT-112
# Description: SANGER: Inhibition of human RT-112 cell growth in a cell viability assay.
# D283 Med = assay type: functional, cell-based, Homo sapiens; settings: Homo sapiens, D283 Med
# Description: SANGER: Inhibition of human D-283MED cell growth in a cell viability assay.
# SW1573 = assay type: functional, cell-based, Homo sapiens; settings: Homo sapiens, SW1573;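 also: growth inhibition of SW1573 cells, read out with a cell viability assay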
# Description: SANGER: Inhibition of human SW1573 cell growth in a cell viability assay.
# KG-1 = assay type: functional, cell-based; settings: Homo sapiens;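 also: growth inhibition of KG-1 cells, read out by a cell viability assay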
# Description: SANGER: Inhibition of human KG-1 cell growth in a cell viability assay.
# NCI-H1155 = assay type: functional, cell-based; settings: Homo sapiens;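 also: cell growth inhibition measured by a viability assay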
# Description: SANGER: Inhibition of human NCI-H1155 cell growth in a cell viability assay.
# SJSA-1 = assay type: functional, cell-based, Homo sapiens; settings: Homo sapiens, SJSA-1;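 also: growth inhibition of human SJSA-1 cells, read out through a cell viability measurement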
# Description: SANGER: Inhibition of human SJSA-1 cell growth in a cell viability assay.
# NCI-H358 = assay type: functional, cell-based, Homo sapiens; settings: Homo sapiens, NCI-H358;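 also: growth inhibition of NCI-H358 human cells, read out with a cell viability assay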
# Description: SANGER: Inhibition of human NCI-H358 cell growth in a cell viability assay.
# TGBC1TKB = assay type: functional, cell-based, Homo sapiens; settings: Homo sapiens, TGBC1TKB;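 also: growth inhibition of TGBC1TKB cells, read out by a cell viability assay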
# Description: SANGER: Inhibition of human TGBC1TKB cell growth in a cell viability assay.
# NCI-H1793 = assay type: functional, cell-based, Homo sapiens; settings: Homo sapiens, NCI-H1793;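 also: cell growth inhibition, read out by a cell viability assay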
# Description: SANGER: Inhibition of human NCI-H1793 cell growth in a cell viability assay.
# UMC-11 = assay type: functional, cell-based, Homo sapiens; settings: Homo sapiens, UMC-11;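 also: growth inhibition of UMC-11 cells, read out with a cell viability assay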
# Description: SANGER: Inhibition of human UMC-11 cell growth in a cell viability assay.
# NCI-H720 = assay type: functional, cell-based; settings: Homo sapiens;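 also: growth inhibition of human NCI-H720 cells determined by a cell viability assay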
# Description: SANGER: Inhibition of human NCI-H720 cell growth in a cell viability assay.
# HT-1080 = assay type: functional, cell-based, Homo sapiens; settings: Homo sapiens, HT-1080
# Description: SANGER: Inhibition of human HT-1080 cell growth in a cell viability assay.
# BCPAP = assay type: functional, cell-based, Homo sapiens; settings: Homo sapiens, BCPAP;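 also: growth inhibition of BCPAP cells, read out in a cell viability assay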
# Description: SANGER: Inhibition of human BCPAP cell growth in a cell viability assay.
# NCI-H1693 = assay type: functional, cell-based, Homo sapiens; settings: Homo sapiens, NCI-H1693;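 also: growth inhibition of the human cell line, read out with a cell viability assay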
# Description: SANGER: Inhibition of human NCI-H1693 cell growth in a cell viability assay.
# Ca9-22 = assay type: functional, cell-based, Homo sapiens; settings: Homo sapiens, Ca9-22;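 also: growth inhibition of Ca9-22 cells, read out with a cell viability assay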
# Description: SANGER: Inhibition of human Ca9-22 cell growth in a cell viability assay.
# SK-OV-3 = assay type: functional, cell-based, Homo sapiens; settings: Homo sapiens, SK-OV-3;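 also: growth inhibition of SK-OV-3 human cells, read out with a cell viability assay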
# Description: SANGER: Inhibition of human SK-OV-3 cell growth in a cell viability assay.
# GAMG = assay type: functional, cell-based, Homo sapiens; settings: Homo sapiens, GAMG;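 also: cell growth inhibition measured by a viability assay in the GAMG human cell line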
# Description: SANGER: Inhibition of human GAMG cell growth in a cell viability assay.
# HOP-62 = assay type: functional, cell-based, Homo sapiens; settings: Homo sapiens, HOP-62;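 also: cell growth inhibition determined with a viability assay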
# Description: SANGER: Inhibition of human HOP-62 cell growth in a cell viability assay.
# A4-Fuk = assay type: functional, cell-based; settings: Homo sapiens;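 also: growth inhibition of A4-Fuk cells, read out by a cell viability assay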
# Description: SANGER: Inhibition of human A4-Fuk cell growth in a cell viability assay.
# 8-MG-BA = assay type: functional, cell-based, Homo sapiens; settings: Homo sapiens, 8-MG-BA;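 also: growth inhibition of 8-MG-BA cells, read out with a cell viability assay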
# Description: SANGER: Inhibition of human 8-MG-BA cell growth in a cell viability assay.
# GI-ME-N = assay type: functional, cell-based, Homo sapiens; settings: Homo sapiens, GI-ME-N;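 also: growth inhibition of human GI-ME-N cells, read out with a cell viability assay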
# Description: SANGER: Inhibition of human GI-ME-N cell growth in a cell viability assay.
# SNU-C2B = assay type: functional, cell-based, Homo sapiens; settings: Homo sapiens, SNU-C2B;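 also: cell viability readout used to measure compound-driven suppression of SNU-C2B cell proliferation, IC50 marking half-maximal growth inhibition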
# Description: SANGER: Inhibition of human SNU-C2B cell growth in a cell viability assay.
# KP-N-YN = assay type: functional, cell-based; settings: Homo sapiens;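 also: growth inhibition of KP-N-YN cells, read out with a cell viability assay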
# Description: SANGER: Inhibition of human KP-N-YN cell growth in a cell viability assay.
# NCI-H209 = assay type: functional, cell-based; settings: Homo sapiens;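 also: growth inhibition of human NCI-H209 cells, measured by a cell viability assay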
# Description: SANGER: Inhibition of human NCI-H209 cell growth in a cell viability assay.
# LK-2 = assay type: functional, cell-based, Homo sapiens; settings: Homo sapiens, LK-2;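 also: growth inhibition of LK-2 cells, read out with a viability assay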
# Description: SANGER: Inhibition of human LK-2 cell growth in a cell viability assay.
# KURAMOCHI = assay type: functional, cell-based; settings: Homo sapiens;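 also: growth inhibition of KURAMOCHI cells, read out with a cell viability assay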
# Description: SANGER: Inhibition of human KURAMOCHI cell growth in a cell viability assay.
# LAN-6 = assay type: functional, cell-based, Homo sapiens; settings: Homo sapiens, LAN-6;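 also: growth inhibition of LAN-6 cells, determined with a cell viability assay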
# Description: SANGER: Inhibition of human LAN-6 cell growth in a cell viability assay.
# SK-MES-1 = assay type: functional, cell-based, Homo sapiens; settings: Homo sapiens, SK-MES-1;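 also: growth inhibition of human SK-MES-1 cells, read out with a cell viability assay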
# Description: SANGER: Inhibition of human SK-MES-1 cell growth in a cell viability assay.
# SCC-25 = assay type: functional, cell-based, Homo sapiens; settings: Homo sapiens, SCC-25;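 also: growth inhibition of SCC-25 cells, measured with a cell viability assay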
# Description: SANGER: Inhibition of human SCC-25 cell growth in a cell viability assay.
# NB14 = assay type: functional, cell-based; settings: Homo sapiens;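 also: growth inhibition of NB14 cells measured with a cell viability assay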
# Description: SANGER: Inhibition of human NB14 cell growth in a cell viability assay.
# HAL-01 = assay type: functional, cell-based; settings: Homo sapiens;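 also: growth inhibition of human HAL-01 cells, read out with a cell viability assay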
# Description: SANGER: Inhibition of human HAL-01 cell growth in a cell viability assay.
# NCI-H28 = assay type: functional, cell-based, Homo sapiens; settings: Homo sapiens, NCI-H28;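 also: growth inhibition of human NCI-H28 cells, read out as cell viability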
# Description: SANGER: Inhibition of human NCI-H28 cell growth in a cell viability assay.
# IST-MES1 = assay type: functional, cell-based, Homo sapiens; settings: Homo sapiens, IST-MES1;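 also: growth inhibition of IST-MES1 cells, measured with a cell viability assay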
# Description: SANGER: Inhibition of human IST-MES1 cell growth in a cell viability assay.
# AGS = assay type: functional, cell-based, Homo sapiens; settings: Homo sapiens, AGS;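 also: growth inhibition of AGS cells, determined with a cell viability assay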
# Description: SANGER: Inhibition of human AGS cell growth in a cell viability assay.
# NKM-1 = assay type: functional, cell-based; settings: Homo sapiens;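 also: growth inhibition of NKM-1 cells, read out with a cell viability assay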
# Description: SANGER: Inhibition of human NKM-1 cell growth in a cell viability assay.
compound,measurement,setting,value
CCOc1nc(NC(=O)Cc2cc(OC)ccc2OC)cc(N)c1C#N,IC50,Panc1005,> 10000 nM
same,IC50,EGI-1,> 10000 nM
same,IC50,GP5d,> 10000 nM
same,IC50,SNU-449,> 10000 nM
same,IC50,LB771-HNC,> 10000 nM
same,IC50,MKN-7,> 10000 nM
same,IC50,BE-13,> 10000 nM
same,IC50,A2780,> 10000 nM
same,IC50,ONS-76,> 10000 nM
same,IC50,LB2518-MEL,> 10000 nM
same,IC50,8505C,> 10000 nM
same,IC50,NCI-H1581,> 10000 nM
same,IC50,EW-16,> 10000 nM
same,IC50,647-V,> 10000 nM
same,IC50,A253 cell line,> 10000 nM
same,IC50,CHP-212,> 10000 nM
same,IC50,RT-112,> 10000 nM
same,IC50,D283 Med,> 10000 nM
same,IC50,SW1573,> 10000 nM
same,IC50,KG-1,> 10000 nM
same,IC50,NCI-H1155,> 10000 nM
same,IC50,SJSA-1,> 10000 nM
same,IC50,NCI-H358,> 10000 nM
same,IC50,TGBC1TKB,> 10000 nM
same,IC50,NCI-H1793,> 10000 nM
same,IC50,UMC-11,> 10000 nM
same,IC50,NCI-H720,> 10000 nM
same,IC50,HT-1080,> 10000 nM
same,IC50,BCPAP,> 10000 nM
same,IC50,NCI-H1693,> 10000 nM
same,IC50,Ca9-22,> 10000 nM
same,IC50,SK-OV-3,> 10000 nM
same,IC50,GAMG,> 10000 nM
same,IC50,HOP-62,> 10000 nM
same,IC50,A4-Fuk,> 10000 nM
same,IC50,8-MG-BA,> 10000 nM
same,IC50,GI-ME-N,> 10000 nM
same,IC50,SNU-C2B,> 10000 nM
same,IC50,KP-N-YN,> 10000 nM
same,IC50,NCI-H209,> 10000 nM
same,IC50,LK-2,> 10000 nM
same,IC50,KURAMOCHI,> 10000 nM
same,IC50,LAN-6,> 10000 nM
same,IC50,SK-MES-1,> 10000 nM
same,IC50,SCC-25,> 10000 nM
same,IC50,NB14,> 10000 nM
same,IC50,HAL-01,> 10000 nM
same,IC50,NCI-H28,> 10000 nM
same,IC50,IST-MES1,> 10000 nM
same,IC50,AGS,> 10000 nM
same,IC50,NKM-1,> 10000 nM
C=CCNC1=C2C[C@@H](C)C[C@H](OC)[C@H](O)[C@@H](C)/C=C(\C)[C@H](OC(N)=O)[C@@H](OC)/C=C\C=C(/C)C(=O)NC(=CC1=O)C2=O [TANESPIMYCIN],IC50,Panc1005,412 nM
same,IC50,EGI-1,> 1000 nM
same,IC50,GP5d,141 nM
same,IC50,SNU-449,> 1000 nM
same,IC50,LB771-HNC,> 1000 nM
same,IC50,MKN-7,> 1000 nM
same,IC50,BE-13,> 1000 nM
same,IC50,A2780,25.3 nM
same,IC50,ONS-76,> 1000 nM
same,IC50,LB2518-MEL,258 nM
same,IC50,8505C,1000 nM
same,IC50,NCI-H1581,103 nM
same,IC50,EW-16,> 1000 nM
same,IC50,647-V,> 1000 nM
same,IC50,A253 cell line,> 1000 nM
same,IC50,CHP-212,26.3 nM
same,IC50,RT-112,140 nM
same,IC50,D283 Med,> 1000 nM
same,IC50,SW1573,148 nM
same,IC50,KG-1,> 1000 nM
same,IC50,NCI-H1155,262 nM
same,IC50,SJSA-1,318 nM
same,IC50,NCI-H358,687 nM
same,IC50,TGBC1TKB,80.4 nM
same,IC50,NCI-H1793,385 nM
same,IC50,UMC-11,552 nM
same,IC50,NCI-H720,25.5 nM
same,IC50,HT-1080,84.4 nM
same,IC50,BCPAP,189 nM
same,IC50,NCI-H1693,> 1000 nM
same,IC50,Ca9-22,> 1000 nM
same,IC50,SK-OV-3,176 nM
same,IC50,GAMG,34.3 nM
same,IC50,HOP-62,499 nM
same,IC50,A4-Fuk,> 1000 nM
same,IC50,8-MG-BA,94.7 nM
same,IC50,GI-ME-N,772 nM
same,IC50,SNU-C2B,580 nM
same,IC50,KP-N-YN,> 1000 nM
same,IC50,NCI-H209,> 1000 nM
same,IC50,LK-2,183 nM
same,IC50,KURAMOCHI,952 nM
same,IC50,LAN-6,> 1000 nM
same,IC50,SK-MES-1,36.1 nM
same,IC50,SCC-25,246 nM
same,IC50,NB14,> 1000 nM
same,IC50,HAL-01,> 1000 nM
same,IC50,NCI-H28,118 nM
same,IC50,IST-MES1,> 1000 nM
same,IC50,AGS,19.4 nM
same,IC50,NKM-1,107 nM
